Experimental data reported in ChEMBL document CHEMBL5665443, “Enzyme Inhibitor Single Concentration assay results for EUbOPEN Chemogenomics Library” (2024).
Where a SMILES comes first, the peptide text is derived from it. Bridges are numbered along the chain shown (N, C = ends). [ ]: non-standard residue; d: D form. Orn = NCCC[C@H](N)C(=O)O; Mpa = O=C(O)CCS

What was measured:
[1] = target: Methyl-CpG-binding domain protein 4 (Homo sapiens) (UniProt O95243); details: Hit No;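 further: MBD4 activity read as fluorescence at 594 nm from cleavage and release of a quenched duplex DNA oligonucleotide, with APE1 coupled to incise the strand and raise turnover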
Sequence of Methyl-CpG-binding domain protein 4 (Homo sapiens) (O95243 whole entry, the tested form may be a part): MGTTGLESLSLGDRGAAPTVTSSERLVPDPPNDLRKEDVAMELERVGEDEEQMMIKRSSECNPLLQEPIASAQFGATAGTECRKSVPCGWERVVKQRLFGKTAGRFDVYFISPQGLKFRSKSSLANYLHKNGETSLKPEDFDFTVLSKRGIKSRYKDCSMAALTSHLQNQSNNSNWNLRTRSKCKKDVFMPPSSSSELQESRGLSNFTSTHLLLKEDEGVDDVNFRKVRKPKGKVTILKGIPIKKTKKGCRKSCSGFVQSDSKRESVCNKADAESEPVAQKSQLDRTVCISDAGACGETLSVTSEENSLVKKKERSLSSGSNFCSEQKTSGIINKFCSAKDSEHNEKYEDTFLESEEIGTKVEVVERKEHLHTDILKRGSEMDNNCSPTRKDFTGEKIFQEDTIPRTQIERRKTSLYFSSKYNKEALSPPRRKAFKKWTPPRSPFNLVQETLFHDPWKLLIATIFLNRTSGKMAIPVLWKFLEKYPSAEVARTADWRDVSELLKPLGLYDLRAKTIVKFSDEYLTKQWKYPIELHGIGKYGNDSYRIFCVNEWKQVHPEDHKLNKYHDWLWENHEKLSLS
Description: Inhibition of MBD4 by quantifying inhibition of MBD4-mediated cleavage and dissociation of quenched duplex DNA oligonucleotides, measured as fluorescence at 594 nm. To generate a functional strand incision and increase turn-over this assay is coupled to APE1.

[2] = target: Endonuclease 8-like 1 (Homo sapiens) (UniProt Q96FI4); details: Hit No;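 further: fluorescence at 594 nm from quenched duplex DNA oligonucleotides released by NEIL1 cleavage and strand separation, reported as reduction of this enzyme activity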
Sequence of Endonuclease 8-like 1 (Homo sapiens) (Q96FI4 whole entry): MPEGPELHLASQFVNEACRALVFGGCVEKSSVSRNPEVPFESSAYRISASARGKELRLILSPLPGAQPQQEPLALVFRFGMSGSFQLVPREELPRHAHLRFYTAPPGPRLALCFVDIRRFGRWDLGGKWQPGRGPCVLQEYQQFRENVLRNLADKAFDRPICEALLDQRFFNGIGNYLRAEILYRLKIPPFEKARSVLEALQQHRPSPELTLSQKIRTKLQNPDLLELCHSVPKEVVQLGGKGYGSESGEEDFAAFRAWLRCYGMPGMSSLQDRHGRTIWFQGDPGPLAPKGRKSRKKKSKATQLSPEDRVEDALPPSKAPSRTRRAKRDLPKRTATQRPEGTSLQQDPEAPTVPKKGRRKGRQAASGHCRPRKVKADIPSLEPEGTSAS
Description: Inhibition of NEIL1 by quantifying inhibition of NEIL1-mediated cleavage and dissociation of quenched duplex DNA oligonucleotides, measured as fluorescence at 594 nm.

[3] = target: N-glycosylase/DNA lyase (Homo sapiens) (UniProt O15527); details: Compound Concentration 10.0 uM, Hit No;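 further: OGG1 cleavage of a quenched duplex DNA oligonucleotide, coupled to APE1 for strand incision, read as fluorescence at 594 nm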
Sequence of N-glycosylase/DNA lyase (Homo sapiens) (O15527 whole entry): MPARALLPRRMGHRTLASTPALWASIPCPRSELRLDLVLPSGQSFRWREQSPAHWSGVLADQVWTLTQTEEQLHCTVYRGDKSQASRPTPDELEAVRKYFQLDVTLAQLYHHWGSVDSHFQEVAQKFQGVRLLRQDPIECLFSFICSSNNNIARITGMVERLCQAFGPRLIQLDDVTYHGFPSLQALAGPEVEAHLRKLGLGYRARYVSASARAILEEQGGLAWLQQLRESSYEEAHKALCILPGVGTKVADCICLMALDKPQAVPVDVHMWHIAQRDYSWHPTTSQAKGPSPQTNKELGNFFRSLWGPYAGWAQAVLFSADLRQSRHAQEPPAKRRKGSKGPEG
Description: Inhibition of OGG1 by quantifying inhibition of OGG1-mediated cleavage and dissociation of quenched duplex DNA oligonucleotides, measured as fluorescence at 594 nm. To generate a functional strand incision and increase turn-over this assay is coupled to APE1.

[4] = target: T1, Single-strand selective monofunctional uracil DNA glycosylase (Homo sapiens) (UniProt Q53HV7); details: Compound Concentration 10.0 uM, Hit No;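 further: enzymatic SMUG1 assay coupled with APE1, reading fluorescence at 594 nm released when a quenched double-stranded DNA oligonucleotide substrate is cleaved and separated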
T1 sequence (whole entry): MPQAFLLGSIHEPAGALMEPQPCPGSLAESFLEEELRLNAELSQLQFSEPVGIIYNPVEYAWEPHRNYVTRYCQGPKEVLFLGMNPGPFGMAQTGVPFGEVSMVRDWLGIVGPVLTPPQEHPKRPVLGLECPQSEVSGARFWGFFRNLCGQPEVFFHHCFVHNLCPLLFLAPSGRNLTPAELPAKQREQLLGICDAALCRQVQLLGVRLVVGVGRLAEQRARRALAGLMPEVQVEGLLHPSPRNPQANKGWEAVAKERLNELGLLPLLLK
Description: Inhibition of SMUG1 by quantifying inhibition of SMUG1-mediated cleavage and dissociation of quenched duplex DNA oligonucleotides, measured as fluorescence at 594 nm. To generate a functional strand incision and increase turn-over this assay is coupled to APE1.

[5] = target: G/T mismatch-specific thymine DNA glycosylase (Homo sapiens) (UniProt Q13569); details: Hit No;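 further: human TDG cleavage of quenched duplex DNA oligonucleotides coupled to APE1, strand release read as fluorescence at 594 nm, inhibition of TDG activity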
Sequence of G/T mismatch-specific thymine DNA glycosylase (Homo sapiens) (Q13569 whole entry): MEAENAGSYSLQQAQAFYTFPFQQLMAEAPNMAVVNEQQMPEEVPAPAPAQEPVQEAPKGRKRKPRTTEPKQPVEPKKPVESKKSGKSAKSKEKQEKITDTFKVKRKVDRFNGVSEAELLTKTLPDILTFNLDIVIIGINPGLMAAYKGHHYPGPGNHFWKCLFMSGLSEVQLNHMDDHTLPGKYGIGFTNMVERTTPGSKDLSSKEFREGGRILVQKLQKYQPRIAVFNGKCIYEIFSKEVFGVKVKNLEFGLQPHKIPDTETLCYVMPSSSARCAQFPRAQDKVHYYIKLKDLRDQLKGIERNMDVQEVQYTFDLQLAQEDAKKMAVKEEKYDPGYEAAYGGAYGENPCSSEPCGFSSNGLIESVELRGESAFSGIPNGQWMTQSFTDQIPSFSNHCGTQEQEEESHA
Description: Inhibition of TDG by quantifying inhibition of TDG-mediated cleavage and dissociation of quenched duplex DNA oligonucleotides, measured as fluorescence at 594 nm. To generate a functional strand incision and increase turn-over this assay is coupled to APE1.

[6] = target: T2, Endonuclease 8-like 2 (Homo sapiens) (UniProt Q969S2); details: Compound Concentration 10.0 uM, Hit No;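 further: fluorescence at 594 nm reports NEIL2 cutting and release of a quenched double-stranded DNA oligo substrate, reduced signal read as inhibition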
T2 sequence (whole entry): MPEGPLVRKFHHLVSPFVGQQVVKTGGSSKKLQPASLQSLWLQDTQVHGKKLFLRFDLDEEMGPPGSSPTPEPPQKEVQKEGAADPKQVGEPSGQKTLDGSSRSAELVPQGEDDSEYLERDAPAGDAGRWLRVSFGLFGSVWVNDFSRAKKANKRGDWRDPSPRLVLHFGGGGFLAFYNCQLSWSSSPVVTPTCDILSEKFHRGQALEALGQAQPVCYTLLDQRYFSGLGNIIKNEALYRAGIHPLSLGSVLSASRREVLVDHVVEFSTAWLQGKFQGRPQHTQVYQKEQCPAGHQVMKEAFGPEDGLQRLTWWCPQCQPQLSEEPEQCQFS
Description: Inhibition of NEIL2 by quantifying inhibition of NEIL2-mediated cleavage and dissociation of quenched duplex DNA oligonucleotides, measured as fluorescence at 594 nm.

[7] = target: Uracil-DNA glycosylase (Homo sapiens) (UniProt P13051); details: Hit No;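 further: UNG excision on a quenched double-stranded DNA oligo probe, with APE1 added for strand incision and turnover, read as fluorescence at 594 nm as strands separate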
Sequence of Uracil-DNA glycosylase (Homo sapiens) (P13051 whole entry): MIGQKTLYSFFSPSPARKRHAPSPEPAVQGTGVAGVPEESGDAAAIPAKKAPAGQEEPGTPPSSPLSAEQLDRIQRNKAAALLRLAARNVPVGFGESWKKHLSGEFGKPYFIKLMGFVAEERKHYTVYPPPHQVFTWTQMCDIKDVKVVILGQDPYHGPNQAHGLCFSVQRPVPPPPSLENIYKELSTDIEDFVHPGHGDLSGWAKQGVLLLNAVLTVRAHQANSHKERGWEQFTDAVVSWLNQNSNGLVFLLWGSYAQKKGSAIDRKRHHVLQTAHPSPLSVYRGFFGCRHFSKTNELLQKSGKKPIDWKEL
Description: Inhibition of UNG by quantifying inhibition of UNG-mediated cleavage and dissociation of quenched duplex DNA oligonucleotides, measured as fluorescence at 594 nm. To generate a functional strand incision and increase turn-over this assay is coupled to APE1.

Compound	inhibition ([1]; Compound Concentration 10.0 uM)	inhibition ([2]; Compound Concentration 10.0 uM)	inhibition [3]	inhibition [4]	inhibition ([5]; Compound Concentration 10.0 uM)	inhibition [6]	inhibition ([7]; Compound Concentration 10.0 uM)	inhibition ([1]; Compound Concentration 1.0 uM)	inhibition ([2]; Compound Concentration 1.0 uM)	inhibition ([5]; Compound Concentration 1.0 uM)	inhibition ([7]; Compound Concentration 1.0 uM)
N=C(N)SCCc1c[nH]cn1	11.4%	-8.06%	-6.9%	-7.4%	-1.52%	–	–	–	–	–	–
Cc1c(C(=O)O)cc(-c2ccc(C3CCNCC3)cc2)c2ccc(-c3ccc(C(F)(F)F)cc3)cc12	–	-6.8%	11.4%	4.5%	44.3%	-4.83%	3.66%	–	–	–	–
CCn1c(CNC(=O)c2nc(Cl)cnc2N)[n+](CC)c2ccc(C(=O)N(C)CCN(C)C)cc21	53.4%	-5.14%	14.2%	12.7%	96.8%	–	2.92%	–	–	–	–
CCCCCCCCCCCCCCCCOC[C@H](COP(=O)([O-])OCC[N+](C)(C)C)OC(C)=O	–	-4.5%	31.6%	–	–	-9.72%	-5.53%	–	–	–	–
C=CC(=O)N1CCC([C@@H]2CCNc3c(C(N)=O)c(-c4ccc(Oc5ccccc5)cc4)nn32)CC1	–	-8.45%	6.47%	20.1%	49.9%	–	-0.527%	–	–	–	–
Cc1nc(-c2ccc(-c3ccc(C(=O)N4CCc5cc6c(cc54)C4(CCN(C)CC4)CO6)cc3)c(C)c2)no1	2.3%	-7.62%	–	–	-5.26%	-3.48%	–	–	–	–	–
NC(=O)[C@@H]1CCCN1C(=O)[C@H](Cc1c[nH]cn1)NC(=O)[C@@H]1CCC(=O)N1	-3.57%	-9.1%	-2.75%	-2.65%	10.8%	12.7%	–	–	–	–	–
O=C(c1ccc(F)c(F)c1Nc1ccc(I)cc1F)N1CC(O)([C@@H]2CCCCN2)C1	21.9%	–	–	13.1%	45%	–	7.28%	–	–	–	–
O=S(=O)(c1ccccc1)c1cnc2c(N3CCNCC3)cccc2c1	–	6.47%	-2.8%	-2.7%	–	-5.97%	-8.69%	–	–	–	–
CCOc1ccc(C[C@H]2NC(=O)CCSSC[C@@H](C(=O)N3CCC[C@H]3C(=O)N[C@@H](CCCN)C(=O)NCC(N)=O)NC(=O)[C@H](CC(N)=O)NC(=O)[C@H]([C@@H](C)O)NC(=O)[C@H]([C@@H](C)CC)NC2=O)cc1 ([Mpa][dY](Et)ITNCP[Orn]G-NH2; disulfide 1-6)	–	4.99%	–	-2.21%	-5.89%	9%	-8.02%	–	–	–	–
N#Cc1ccc2[nH]cc(CCCCN3CCN(c4ccc5oc(C(N)=O)cc5c4)CC3)c2c1	–	14.2%	-2.53%	10.3%	-5.72%	–	-7.29%	–	–	–	–
CCNC(=O)c1cc2c(N3CCOCC3C)ccnc2[nH]1 (stereo not given)	52.5%	–	-6.36%	15.1%	58.1%	-7.12%	-3.94%	–	–	–	–
COc1cc(N2CCC(O)CC2)ccc1Nc1cc(Nc2ccccc2S(=O)(=O)C(C)C)c2cc[nH]c2n1	13.6%	–	21.1%	4.55%	52.6%	–	3.96%	–	–	–	–
CN1C2CCC1CC(OC(c1ccc(F)cc1)c1ccc(F)cc1)C2 (stereo not given)	–	1.28%	–	–	–	-4.23%	-4.51%	–	–	–	–
Cc1nc2sccn2c(=O)c1CCN1CCC(=C(c2ccc(F)cc2)c2ccc(F)cc2)CC1	–	-4.65%	4.32%	-6.91%	20.8%	7.75%	–	–	–	–	–
CCOc1ccn(-c2ccc(F)cc2)c(=O)c1C(=O)Nc1ccc(Oc2ccnc(N)c2Cl)c(F)c1	–	6.08%	-7.89%	30.4%	59.2%	–	6.57%	–	–	–	–

Compound	inhibition ([1]; Compound Concentration 10.0 uM)	inhibition ([2]; Compound Concentration 10.0 uM)	inhibition [3]	inhibition [4]	inhibition ([5]; Compound Concentration 10.0 uM)	inhibition [6]	inhibition ([7]; Compound Concentration 10.0 uM)	inhibition ([1]; Compound Concentration 1.0 uM)	inhibition ([2]; Compound Concentration 1.0 uM)	inhibition ([5]; Compound Concentration 1.0 uM)	inhibition ([7]; Compound Concentration 1.0 uM)
Cc1cc2c(-c3ccco3)cnc(N[C@H]3CCN(C)C[C@@H]3C(=O)NC3CCCCC3)c2[nH]c1=O	29.8%	0.316%	–	–	22.3%	-2.27%	-1.62%	–	–	–	–
Cc1noc([C@H]2C[C@@H](c3ccc(C(F)(F)F)cc3)CN(C(=O)N3CCS(=O)(=O)C3)C2)n1	42.2%	–	1.56%	5.39%	53.6%	-5.59%	-0.51%	–	–	–	–
Cc1ccc(-c2ccc3c(ccc4sc5c(c43)NCC(C)NC5=O)n2)cn1 (stereo not given)	–	-2.5%	-7.16%	6.89%	25.8%	–	–	–	–	–	–
Cc1ccc2c(c1)c1c(n2CCc2ccc(C)nc2)CCN(C)C1	–	-8.95%	–	-3.57%	-5.76%	3.01%	–	–	–	–	–
c1cc(OCCCN2CCCCC2)ccc1CN1CCCCC1	–	-2.58%	-9.64%	–	13.9%	-0.733%	–	–	–	–	–
Clc1ccc(CCCOCCCN2CCCCC2)cc1	–	-3.47%	–	-0.857%	8.64%	-5.97%	-8.48%	–	–	–	–
CC(C)COc1ccc(CNC(=O)N(Cc2ccc(F)cc2)C2CCN(C)CC2)cc1	–	2.32%	-7.83%	–	-0.163%	8%	–	–	–	–	–
O=C(N[C@@H]1CC[C@@H](c2cccc(F)c2F)CN(CC(F)(F)F)C1=O)N1CCC(n2c(=O)[nH]c3ncccc32)CC1	–	-5.1%	-8.48%	–	0.452%	4.76%	–	–	–	–	–
Nc1ccc(C(=O)Nc2cccc(-c3nc(N4CCOCC4)c4oc5ncccc5c4n3)c2)cn1	-6.46%	-5.94%	23%	9.56%	7.37%	–	2.33%	–	–	–	–
Cc1ccc(NC(=O)Nc2cc(C(F)(F)F)ccc2F)cc1Nc1ccc2c(c1)NC(=O)/C2=C\c1ccc[nH]1	–	–	–	–	–	–	–	-5.4%	-7.79%	24.1%	-3.3%
CC[C@H]1OC(=O)[C@H](C)[C@@H](O[C@H]2C[C@@](C)(OC)[C@@H](O)[C@H](C)O2)[C@H](C)[C@@H](O[C@@H]2O[C@H](C)C[C@H](N(C)C)[C@H]2O)[C@@]2(C)CC(C)=C(O2)[C@H](C)[C@@H](O)[C@]1(C)O	–	3.06%	–	-6.48%	0.145%	4.76%	–	–	–	–	–
COc1cccc(OC)c1-c1cc(C(=O)NC2(C(=O)O)C3CC4CC(C3)CC2C4)nn1-c1ccc(C(=O)N(C)CCCN(C)C)cc1C(C)C (stereo not given)	10.5%	2.02%	3.59%	–	18.3%	7.25%	-7.25%	–	–	–	–
Cn1c(-c2csc(C3CCN(CC4=NC5N=CC=CC5N4)CC3)n2)nc2ccccc21 (stereo not given)	-3.01%	-1.5%	-1.15%	–	20.6%	-5.34%	–	–	–	–	–
O=C(Cc1ccc(Cl)c(Cl)c1)N1CCCC[C@H]1CN1CCCC1	–	-3.91%	2.1%	-3.13%	–	-2.48%	-9.61%	–	–	–	–
C[C@@H]1CN(Cc2ccc(F)cc2)CCN1C(=O)COc1ccc(Cl)cc1NC(N)=O	-0.315%	8.25%	–	-3.18%	-7.21%	1.76%	–	–	–	–	–
N#Cc1cccc(C(=O)Nc2cc(-c3ccccc3)nn2-c2ccccc2)c1	–	-1.98%	-5.93%	-0.276%	-2.1%	0.764%	–	–	–	–	–
